From US20200214999A1, “Method for Treating an Inflammatory Disorder” (Allianz Pharmascience Ltd., priority 2019, published 2020) come the findings set out here.

The test system of data set [1] is GMDC (mouse bone marrow derived myeloid dendritic cells). In words: MTS assay for cell viability (cytotoxicity) on GMDC. It counts as cell-based. Conditions: 24 hours, 0 μM to 10 μM tested. As to the method:
(§1) Cells were treated with different concentration of ASC-J9 and ASC-JM17 for 24 hours. Viability of cells were measured by MTS Assays. *: p<0.05.
(§2) MTS assay for cell viability: The cell toxicity of test articles is measured by MTS assay. The MTS assay is based on the reduction of the MTS tetrazolium compound by viable cells to generate a colored formazan dye that is soluble in cell culture media. This conversion is thought to be carried out by NAD(P)H-dependent dehydrogenase enzymes in metabolically active cells. The formazan dye is quantified by measuring the absorbance at 490-500 nm. The non-toxic dose will be applied for further assays.
(§3) Cell culture: Mouse bone marrow derived dendritic cells (BMDC) and bone marrow derived macrophages (BMDM) were generated from mouse bone marrow cells. Briefly, dendritic cells can be generated by two induction procedures. Bone marrow cells can be induced into myeloid DCs called GMDC with GM-CSF and IL-4 for 10 days, while a mixed types of DCs including myeloid and plasmacytoid DCs called Fit3DC can be generated by induction with fit3-ligand for 10 days. […]
(§4) The goal of this example is to evaluate the anti-inflammatory abilities of J9 and JM17 on psoriatic inflammation in vitro and in vivo. To find the safety doses of J9 and JM17 for in vitro study, cytotoxicity of J9 and JM17 were measured by MTS assay. […]

Data set [2] deals with Fit3DC (mouse bone marrow derived dendritic cells, fit3-ligand induced). In words: MTS assay for cell viability (cytotoxicity) on Fit3DC. It counts as cell-based. Conditions: 24 hours, 0 μM to 10 μM tested. As to the method: as §1, §2, §3, §4
Data set [3] concerns inflammatory cytokine induced cytokine expression in dendritic cells (GMDC). In words: TNF-α or IL-1β induced cytokine expression in GMDC by RT-qPCR. It counts as cell-based, mouse. Conditions: GMDC pre-treated 1 hr, then TNF-α or IL-1β for 24 hrs. The method, then: Dendritic cells were pre-treated with different concentration of ASC-J9 and ASC-JM17 for 1 hour and then inflammatory cytokine TNF-α or IL-1β were added for 24 hours. Expression of mouse cytokine genes was measured by RT-qPCR. *: p<0.05; ns: not significant.
(§5) Cell culture: Mouse bone marrow derived dendritic cells (BMDC) and bone marrow derived macrophages (BMDM) were generated from mouse bone marrow cells. Briefly, dendritic cells can be generated by two induction procedures. Bone marrow cells can be induced into myeloid DCs called GMDC with GM-CSF and IL-4 for 10 days, while a mixed types of DCs including myeloid and plasmacytoid DCs called Fit3DC can be generated by induction with fit3-ligand for 10 days. To generate BMDMs, bone marrow cells are induced into BMDM by 30% L929 conditioned medium for 7 days.
(§6) Analysis of gene expression: Total RNA was purified from cells using Isol-RNA Lysis Reagent (5 PRIME GmbH, Hilden, Germany) according to the manufacturer's protocol. Reverse-transcription was performed using the QuantiNova® Reverse Transcription Kit (QIAGEN™) and oligo-dT primers for first-strand cDNA synthesis. Quantitative PCR was performed with gene-specific primers (see appendix) using LightCycler480 detection system (Roche Diagnostics GmbH, Penzberg, Germany) and QuantiNova® SYBR Green RT-PCR Kit for gene expression analysis. The level of mRNA expression was normalized to that of GAPDH.
(§7) Anti-inflammatory effects of J9 and JM17 for inflammatory cytokine including TNF-α, IL-1β, IL-17A, IL-22, IL-23 and IL-31 induced by TLR ligand in various immune cells including mouse splenocytes, mouse bone marrow derived dendritic cells and bone marrow derived macrophages were analyzed by quantitative PCR (RT-qPCR).
To evaluate the anti-inflammatory effects of J9 and JM17 in vitro, GMDC were pre-treated with J9 and JM17 for 1 hr and stimulated with the inflammatory cytokine, TNF-α or IL-1β[…]for 24 hrs. Expression of cytokines including TNF-α, IL-1β, IL-17A, IL-22, IL-23, and IL-31 were measured by RT-qPCR. […] Expression of IL-17A was not induced by TNF-α or IL-1β. […]

Data set [4] has as its system R848 induced cytokine expression in mouse splenocytes. In words: R848 induced cytokine expression in mouse splenocytes by RT-qPCR. It counts as cell-based. Conditions: 1 μM pre-treatment 1 hr, R848 6 hrs. As to the method: Mouse splenocytes were pre-treated with 1 μM of ASC-J9 or ASC-JM17 for 1 hour and then TLR ligand, R848 were added for 6 hours. Expression of mouse cytokine genes were measured by RT-qPCR. *: p<0.01.
as §6, §7
(§8) We also evaluate anti-inflammatory effects of J9 and JM17 on mouse splenocytes and bone marrow derived macrophages. Mouse splenocytes were pre-treated with J9 and JM17 for 1 hr and TLR ligand, R848, were then added for 6 hrs.
On the technique in general: In qPCR the cycle at which signal appears reflects the starting amount.

Data set [5] deals with R848 induced cytokine expression in mouse bone marrow derived macrophages (BMDM). In words: R848 induced cytokine expression in bone marrow derived macrophages by RT-qPCR. Conditions: 1 μM pre-treatment 1 hour, R848 6 hours. It counts as cell-based. The method, then: Macrophages were pre-treated with 1 μM of ASC-J9 or ASC-JM17 for 1 hour and then TLR ligand, R848 were added for 6 hours. Expression of mouse cytokine genes were measured by RT-qPCR. *: p<0.01; ns: not significant.
as §5, §6, §7, §8

Data set [6] has as its system IMQ-induced psoriatic inflammation. In words: IMQ-induced psoriatic inflammation model, #1 animal experiment (10 days). It counts as in vivo, Balb/c mice. Conditions: for erythema, scaling, and thickness in lesional skins: photographic observation. The method, then: Balb/c mice were topical treated with imiquimod (IMQ) and with control cream, ASC-J9 or clobetasol for consecutive 10 days. (A) Schematic schedule was illustrated. Photographic observations in each group were shown at day 0 (B), day 5 (C) and day 10 (D).
Balb/c mice were topical treated with imiquimod (IMQ) and with control cream, ASC-J9 or clobetasol for consecutive 10 days. (A) The severity of inflammatory responses on the skin was assessed on the basis of the Psoriasis Area Severity Index. (B) Ten days after treatment, the mice were sacrificed and their skin thickness was measured with vernier caliper to assess the severity of the psoriatic responses. (C) Expession of cytokine genes in mouse skin after 10 day treatment by RT-qPCR. (D) H&E staining of lesional skin after 10 day treatment. *: p<0.05; **: […]; ns: not significant.
(§9) Animal Model of Psoriatic Inflammation: 30 or 40 mg of 5% IMQ gel (Aldara™) was smeared on the shaved backs of Balb/c mice each day for 5 or 10 days. The severity of the skin's inflammatory response was assessed on the basis of the Psoriasis Area Severity Index (PASI) as described. Briefly, the three parameters of psoriasis responses—erythema, scaling, and skin thickness—were scored independently on a scale from 0 to 4 as follows: 0: none; 1: slight; 2: moderate; 3: marked; and 4: very marked. By adding the scores from these three parameters, the severity of the response was measured using the cumulative score from 0 to 12. At the end of the experiment, the mice were sacrificed for measurement of skin thickness with vernier caliper. Group Assignments and Dose Levels of animal studies are described as follows:
(§10) The mice were (1) photoed for evaluation and analyzed (2) Psoriasis Area Severity Index (PASI); (3) Skin thickness measurement. We selected the sample in experiment with better inhibitory effect for further analysis by accessing: (1) H&E staining and (2) inflammatory gene expression including TNF-α, IL-1β, IL-17A, IL-22, IL-23 and IL-31 in lesional tissue by quantitative PCR (RT-qPCR).
We further evaluated anti-inflammatory effects of J9 on psoriatic inflammation in vivo. First, we compared the effects of J9 control cream, J9 cream and clobetasol on inhibition of IMQ-induced psoriatic inflammation in a 10-day experimental schedule (FIG. 5A). Mice of each group were photoed for evaluation at day 0, day 5 and day 10 (FIGS. 5B, 5C and 5D). […] In control cream group, there were no inhibitory effects observed (FIG. 5B). […] These phenomena were reached most severe at day 5 (FIGS. 5 and 6A). […] The skin thickness were measured at day 10. […] Expression of cytokine genes including TNF-α, IL-1β, IL-17A, IL-22, IL-23 and IL-31 in lesional skin were also analyzed. Of these cytokines, we observed that J9 attenuated IMQ-induced IL-1β expression at day 10 (FIG. 6C).

For data set [7] the test system is unchanged. Nature of the data set: IMQ-induced psoriatic inflammation model, #2 animal experiment (5 days). It counts as in vivo, Balb/c mice. Conditions: for IMQ-induced inflammation: photographic observation. As to the method:
Balb/c mice were topical treated with imiquimod (IMQ) and with control cream, different dose of ASC-J9 for consecutive 5 days. (A) Schematic schedule was illustrated. Photographic observations in each group were shown at day 0 (B), day 5 (C).
Balb/c mice were topical treated with imiquimod (IMQ) and with control cream, different dose of ASC-J9 for consecutive 5 days. (A) The severity of inflammatory responses on the skin was assessed on the basis of the Psoriasis Area Severity Index. (B) Five days after treatment, the mice were sacrificed and their skin thickness was measured with vernier caliper to assess the severity of the psoriatic responses. […]
as §9, §10
To further understand the therapeutic effects of different concentration of J9 cream, 0.5% J9 (2 mg/cm^2 and 6 mg/cm^2), 0.1% J9 (10 mg/cm^2) and 0.05% J9 cream(2 mg/cm^2) were used to evaluate therapeutic effects on IMQ-induced psoriatic inflammation in a five-day experimental schedule (FIG. 7A). Mice of each group were photoed for evaluation at day 0 and day 5 (FIGS. 7B and 7C). […] PASI score, skin thickness and gene expression of lesional skin were also measured.

Data set [8] relates to artemin (ARTN) expression in keloid patient derived fibroblasts 256K and 268K. Nature of the data set: ARTN mRNA expression in keloid patient derived fibroblasts by qPCR. It counts as cell-based, human. Conditions: keloid fibroblasts 256K and 268K, 24 hr treatment, mRNA by qPCR vs GAPDH. The method, then: Two keloid patient derived fibroblasts named 256K and 268K were treated with ASC-J9 for 24 hr. The cells were then harvested and mRNA expression of ARTN and GAPDH were determined by qPCR.

In the case of `COc1ccc(/C=C/C(=O)CC(=O)/C=C/c2ccc(OC)c(OC)c2)cc1OC` [ASC-J9], the “non-toxic doses (cells resistant up to)” value in data set [1] was “up to 10 μM”. Moreover, in data set [2], the “non-toxic doses (cells resistant up to)” value is “up to 10 μM”. Further, in data set [3], the “TNF-α or IL-1β induced IL-1β expression” value is recorded as “significantly inhibit”, the “TNF-α or IL-1β induced IL-22 expression” value is recorded as “did not attenuate” and the “TNF-α or IL-1β induced TNF-α expression” value is recorded as “significantly inhibit”. In data set [4], the “R848 induced IL-1β expression” value is recorded as “significantly inhibited”, the “R848 induced IL-17A expression” value was “significantly inhibited”, the “R848 induced IL-22 expression” value is “significantly inhibited” and the “R848 induced TNF-α expression” value was “significantly inhibited”. In data set [5], the “R848-induced expression of IL-1β” value was “inhibited”, the “R848-induced expression of IL-17A” value was “inhibited”, the “R848-induced expression of IL-22” value is listed as “inhibited” and the “R848-induced expression of IL-31” value is listed as “inhibited”. Besides, the “R848-induced expression of TNF-α” value in data set [5] is reported as “inhibited”. Besides, in data set [6] (0.5% J9 cream 2 mg/cm^2 topical daily, after 5 day treatment), the “erythema, scaling, and thickness in lesional skins” value is listed as “significantly reduced”. Besides, the “erythema, scaling, and thickness in lesional skins” value in data set [6] (0.5% J9 cream 10 mg/cm^2 topical daily, after 5 day treatment) is listed as “significantly reduced”. Moreover, the “IMQ-induced increase of skin thickness” value in data set [6] (J9 2 mg/cm^2, measured at day 10 with vernier caliper) was “significantly inhibited”. Besides, the “Psoriasis Area Severity Index (PASI) score” value in data set [6] (J9 2 mg/cm^2 topical daily, at day 3 to day 10) is reported as “significantly decreased”. For the same compound, the “IMQ-induced increase of skin thickness” value in data set [6] (J9 10 mg/cm^2, measured at day 10 with vernier caliper) is given as “significantly inhibited”. The “Psoriasis Area Severity Index (PASI) score” value in data set [6] (J9 10 mg/cm^2 topical daily, at day 4 to day 6) is reported as “significantly decreased”. Moreover, the “IMQ-induced IL-1β expression in lesional skin” value in data set [6] (at day 10, RT-qPCR) is recorded as “attenuated”. For the same compound, in data set [6] (lesional skin after 10 day treatment), the “thickeness of the epidermis and dermis and keratinocyte proliferation in epidermis and inflammation (H&E staining)” value was “reduced”. Moreover, in data set [7] (0.1% J9 10 mg/cm^2, RT-qPCR), the “IMQ-induced expression of IL-1(3 in lesional skin)” value is “inhibited” and the “IMQ-induced expression of TNF-a in lesional skin” value is “inhibited”. Further, the IMQ-induced inflammation result in data set [7] (0.1% J9 10 mg/cm^2, after 5 day treatment) is “inhibited”. In data set [7] (0.1% J9 10 mg/cm^2, at day 4 to day 5), the PASI scores result is listed as “marked decreased”. For the same compound, in data set [7] (0.5% J9 2 mg/cm^2, RT-qPCR), the “IMQ-induced expression of IL-1(3 in lesional skin)” value is recorded as “inhibited” and the “IMQ-induced expression of TNF-a in lesional skin” value is given as “inhibited”. In data set [7] (0.5% J9 2 mg/cm^2, after 5 day treatment), the IMQ-induced inflammation entry is reported as “inhibited”. Also, in data set [7] (0.5% J9 2 mg/cm^2, at day 4 to day 5), the PASI scores result is on record as “marked decreased”. Also, in data set [7] (0.5% J9 6 mg/cm^2, RT-qPCR), the “IMQ-induced expression of IL-1(3 in lesional skin)” value is recorded as “inhibited” and the “IMQ-induced expression of TNF-a in lesional skin” value is given as “inhibited”. Further, the IMQ-induced inflammation entry in data set [7] (0.5% J9 6 mg/cm^2, after 5 day treatment) is recorded as “inhibited”. In addition, the PASI scores entry in data set [7] (0.5% J9 6 mg/cm^2, at day 4 to day 5) is “marked decreased”. The “artemin (ARTN) expression (pruritus marker)” value in data set [8] is reported as “down-regulating”.
In the case of `C[C@H]1C[C@H]2[C@@H]3CCC4=CC(=O)C=C[C@]4(C)[C@@]3(F)[C@@H](O)C[C@]2(C)[C@@]1(O)C(=O)CCl` [clobetasol, reference compound], the skin thickness result in data set [6] (clobetasol 0.05% 8 mg/cm^2, day 10, compared to sham control group) was “reduced skin thickness compared to sham control group”. For the same compound, the “IMQ-induced erythema, scaling and increase of skin thickness in lesional skin” value in data set [6] (clobetasol 0.05% 8 mg/cm^2 topical daily, after 5 day treatment) is listed as “strongly inhibited”.
